Results from patent US4410546A, “Antiallergic compositions” (Hisamitsu Pharmaceutical Co., Inc., priority 1981, dated 1983).
Like-named read-outs stand apart in the source and are kept apart here.

Columns and labels:
[1] = system: homologous passive cutaneous anaphylaxis; assay: Homologous passive cutaneous anaphylaxis (Homolog. PCA) in rats; type: in vivo, rat (male Wistar strain); conditions: 200 mg/kg oral, 2 hours prior to antigen; for inhibition at 200 mg/kg: Rattus norvegicus
Description: In accordance with the experimental method of Tada, T et al (J. Immunol., 106, 1002, 1971), a homologous passive cutaneous anaphylaxis (Homolog. PCA) reaction test was made on male Wistar strain rats, each weighing 160-170 g. In this test, DNP-As (Dinitrophenol coupled Ascaris suum extract) was obtained by reacting dinitrophenol (DNP) with protein extracted from Ascaris suum and was used as the antigen. Anti-DNP-As rats serum was prepaed using said antigen and was used as the antibody. […] After the lapse of 48 hours, the test animals were each given 1.0 ml of the antigen solution (2.0 mg as the amount of protein) containing 0.25% Evans blue by intravenous injection thereinto. Thirty (30) minutes later, they were sacrificed by exsanguination and their skins were peeled to measure the area of PCA blueing lesion. The amounts of dye extravasated were each measured in accordance with the method proposed by Harada, M. et al (J. Pharm. Pharmacol., 23, 218, 1971).
The compounds of the formula (I) were orally administered at a dose of 200 mg/kg to the rats two hours prior to the administration of the antigen thereto.

[2] = system: reversed cutaneous anaphylaxis; assay: Reversed cutaneous anaphylaxis test on rats; type: in vivo, rat (male Wistar strain); conditions: 100 mg/kg oral, one hour prior to anti-rat rabbit serum; for inhibition at 100 mg/kg: 1 h, read-out: Inhibition rate
Method: In accordance with Yamazaki et al's method (Folia Pharmacol. Jap. 60, .sctn.65, 1964) obtained by improving Ungar et al's method (Arch. intern. Pharmacodyn. 123, 71, 1959), male Wistar strain rats, each weighing about 100 g, were tested as follows.
First of all, anti-rat rabbit serum was dissolved in such an amount in an 0.5% solution of Evans blue as to obtain a 15% solution of the serum. The thus obtained serum solution was injected intradermally in an 0.05 ml dose into each of 2 sites on one side of the back of each of the rats, while an 0.5% solution of Evans blue in saline solution was also injected similarly in an 0.05 ml dose into each of 2 sites on one side of the back thereof. Two hours later, the test animals were sacrificed and their skins were peeled. The skins so peeled were punched as the indication of the Evans blue spot to separate the edema (swollen) portions thereof which were then measured for their weights.
The strength of intumescence was calculated from the following formula: [formula] wherein Wi is the weight of the inflammatory portion and Ws is the weight of the control portion.
The antiallergic compounds of the formula (I) according to this invention were orally administered at a dose of 100 mg/kg to the rats one hour prior to the injection of the anti-rat rabbit serum.

[3] = system: lung fragment of guinea pigs; assay: Histamine release on lung fragment of guinea pigs; type: cell-based, guinea pig; conditions: sodium salt, induced by ovalbumin 10^-6 g/ml
Method: The lungs of guinea pigs sensitized actively by ovalbumin were thoroughly irrigated by Tyrode's solution and then cut to obtain about 1-2 mm thick pieces. Two hundred (200) mg of the thus obtained fragments were accurately weighed out, immersed in Tyrode's solution and preincubated at 37° C. for 5 minutes. Then, the compounds of the formula (I) were each suspended in saline solution containing 0.5% of tragacanth gum, incubated at 37° C. for 20 minutes and induced by 10^-6 g/ml of ovalbumin.
Following 20 minutes' incubation, the siolutin was chilled in ice and then measured for the amount of released histamine in the medium and remaining in the tissue by the use of fluorometric assay in accordance with the Shore et al's method (J. Pharmacol. exp. Ther. 127, 182, 1959).

[4] = system: mesenteric mast cells; assay: Test for the degranulation of mesenteric mast cells in rats; type: cell-based, rat; conditions: 10^-4 g/ml; induced by 5×10^-6 g/ml DNP-As
Method: Rats were passively sensitized at their abdominal cavity by anti-DNP-As rat serum, 24 hours after which the mesenterium of the rats was enucleated. Then, 100 mg of the mesenterium were accurately weighed out, immersed in Tyrode's solution and preincubated at 37° C. for 5 minutes. Thereafter, the immersed solution was added to the antiallergic compounds of the formula (I) suspended in saline solution containing 0.5% of tragacanth gum, incubated at 37° C. for 20 minutes and then induced by 5×10^-6 g/ml of DNP-As. After 20 minutes' incubation, the solution was chilled in ice, and the mesenterium so reacted was dyed by the use of formalin (10% formaldehyde content) and an 0.1% tolwdine blue solution containing 0.1% of acetic acid, treated with ethanol and xylene and measured for degranulation by mirror inspection ([…]).

[5] = Acute toxicity test; conditions: mouse, in vivo; oral, mice, death in 3 weeks
Method: The compounds (of the formula (I)) to be tested were each suspended in a saline solution containing 0.5% of tragacanth gum and then orally administered to 6 ddY strain mice in a group, each mouse weighing 20-25 g. LD50 values were calculated from the death of mice in 3 weeks following the administration.

[6] = amount of dye, read-out: Inhibition rate (amount of dye extravasated)
[7] = area, read-out: Inhibition rate (area of dye extravasated)

Row | SMILES | Amount of dye extravasated [1] [μg/site] | Area of dye extravasated [1] [mm^2] | inhibition at 200 mg/kg [1, 6] [%] | inhibition at 200 mg/kg [1, 7] [%] | Intumescence rate [2] [%] | inhibition at 100 mg/kg [2] [%] | Inhibition rate (histamine release) ([3]; Conc.: 10^-4 g/ml) [%] | Inhibition rate (histamine release) ([3]; Conc.: 10^-5 g/ml) [%] | Degranulation rate [4] [%] | LD50 at 504 h [5] [mg/kg]
1 | CCCCC[C@H]1CC[C@H](C(=O)O)CC1 [Compound 2, trans-4-n-pentylcyclohexanecarboxylic acid] | 2.49 ± 0.29 | 67.20 ± 2.57 | 82.7 | 32.2 | 25.00 ± 2.77 | 41.3 | 92.2 | 83.4 | 74.96 ± 2.91 | > 2000
2 | CCCC[C@H]1CC[C@H](C(=O)O)CC1 [Compound 1, trans-4-n-butylcyclohexanecarboxylic acid] | 5.17 ± 0.32 | 76.87 ± 2.68 | 64 | 22.4 | 29.81 ± 7.17 | 30 | 83.9 | 9.2 | 71.45 ± 5.85 | > 2000
